One assay concerns HMG CoA reductase. Description: HMG CoA reductase expression in liver of HFD mice (8 weeks). The class given is in vivo. The settings on record: KMUP-1 HCl 2.5, 5 mg/kg, simvastatin 5 mg/kg. Here is the method:
In the 8 week experiment, C57BL/6J male mice (21-22 g), after fasting, were fed a HFD as a model of hyperlipidemia for 8 weeks. During the 2 month experiments, mice fasted for one night before the experiment was changed from a standard diet (STD) to a HFD and then the mice were randomly divided into 5 groups, including 2 control and 3 treatment groups. Six mice were used in each group. […]
The obtained protein extract was boiled to a ratio of 4:1 with a sample buffer (Tris 100 mM, pH 6.8, glycerol 20%, SDS 4% and bromophenol blue 0.2%). Electrophoresis was performed using 10% SDS-polyacrylamide gel (1 hour, 100 V, 40 mA, 20 μg protein per lane).
The blot was then incubated with anti-mouse or anti-goat IgG linked to alkaline phosphatase (1:1000) for 1 hour.

Another assay concerns PDE-5A. Description: Table 4 PDE-5A (% of control). It counts as cell-based. The conditions noted are these: control group = 100 (%).
The subject of another assay is eNOS. Description: Table 4 eNOS (% of control). The conditions noted are these: control group = 100 (%). It counts as cell-based.
A further assay deals with mice fed a HFD. Description: HFD-fed mice, 14-week experiment: body weight, liver morphology, H&E, oil globulets. The class given is in vivo. Here is the method:
In the 14-week experiment, mice were fed a HFD from week 1 to week 14. During the 3 month experiments, KMUP-1 HCl (2.5 mg) was added to 200 ml tap water and) and drink for 14 weeks or for the last 6 weeks on mice or obese mice fed HFD, separately. 5 mice had free access to drinking water from week 1 to week 14 (protective group) or from week 8 to week 14 (treatment group). Tap water was used to normalize mineral nutrition (Scheme A).
The diameter of the white bar in the photograph was standardized at 100 μM for measuring the specific diameter of oil globulets in a whole liver slice, observed by microscope, with the aid of Powerpoint PC computer software (Microsoft®, USA) and printed out by a Hewlett-Packard® printer (USA). An increase in oil globulet diameter and cell number indicated increasing liver steatosis, i.e. steaotohepatitis. In contrast, decrease in diameter and the number of fat cells indicated the inhibition of steaotohepatitis. […] Hematoxylin-eosin (H&E) and […] staining of liver were used to assess oil globulet numbers under a microscope.
Mice liver and epididymal fat pads were cut and soaked in formalin, dehydrated through graded alcohols and embedded in paraffin. Specimens of liver tissues and epididymal fat pads fixed with formalin (4%) were embedded in paraffin for one hour at 4° C., cut into […] sections, and subjected to H&E staining before examination by light microscope. In heart tissues, the 4-μm-thick paraffin sections were cut from paraffin-embedded tissue blocks and de-paraffinized by immersion in xylene and rehydrated. The slices were then dyed with H&E. After gently rinsing with water, each slide was dehydrated through graded alcohols and finally soaked in xylene twice.
Hematoxylin-eosin (H&E) and IHC staining of liver were used to assess oil globulet numbers under a microscope. A 100 μM white bar was used to determine oil globule sizes in the liver. Oil globulets in a cell were counted from larger to smaller until size limitations were reached. Increases of oil globulet diameter and number indicated increasing liver steatosis. In contrast, a decrease in oil globulet diameters and numbers could indicate the inhibition of liver steatosis. Oil globulets were measured using a Nikon Eclipse TE200-S microscope, aided by Powerpoint computer software (Microsoft®) and printed by a HP® printer to measure the diameter and number of oil globulets on paper. Counting: of oil globules was performed from larger to smaller ones until the observation reached its limit.

The next assay deals with ROCKII. Briefly: Table 4 ROCKII (% of control). It counts as cell-based. The settings on record: control group = 100 (%).
A further assay concerns LDLRs. Description: IHC staining of LDLRs in liver. It counts as in vivo, mice. The settings on record: drinking KMUP-1 HCl; HFD; protection and treatment groups. As to the method:
Liver tissues were fixed in 10% buffered formalin for 24 hours and then embedded in paraffin. The paraffin-embedded liver tissue sections (4 μm thick) were first heat immobilised and deparaffinised using xylene and then rehydrated in a graded series of ethanol, followed by a final wash in distilled water. Finally, tissue sections were stained with PAS and Mayer's hematoxylin solution.
For IHC of hepatic LDLRs in the animals that drink the KMUP-1 HCl (2.5 mg/200 mL for 1-14 weeks or 8-14 weeks), antigen retrieval of de-paraffinated sections was performed in Dako target retrieval solution, pH 9.0, in a vegetable steamer followed by the quenching of endogenous peroxidase activity with 3.0% H2O2 in methanol. Sections were then incubated with specific primary antibodies overnight at 4° C. in a humidified chamber. The sections were then examined using a DAKO REAL EnVision™ Detection System kit (DAKO, Carpinteria, Calif., U.S.A.) and counterstained with hematoxylin. Images were obtained through a Nikon Eclipse TE200-S microscope.

A further assay deals with mice fed with HFD. Description: HFD-fed mice, 8 weeks, gavage: serum/liver lipids, body weight, food intake. It counts as in vivo. The settings on record: for HDL chol. / LDL chol. / TG / Tot. chol.: Table 2, mice. As to the method: In the 8 week experiment, C57BL/6J male mice (21-22 g), after fasting, were fed a HFD as a model of hyperlipidemia for 8 weeks. During the 2 month experiments, mice fasted for one night before the experiment was changed from a standard diet (STD) to a HFD and then the mice were randomly divided into 5 groups, including 2 control and 3 treatment groups. Six mice were used in each group. […] Liver from the protection group supplemented with KMUP-1 HCl (1 mg/kg/day) were used to determine the HMG CoA reductase expression.
Within 2 months, the 3 day food intake average for each animal was measured. The weight gain and plasma lipid levels of each group were determined and compared to the non-treatment control group. Mouse blood was collected during the daytime by cardiac puncture followed by centrifugation at 90 g (Benchtop Centrifuge, U.S.A.) to separate the serum, and frozen at −80° C., for biochemical analysis using a Hitachi Clinical Analyzer 7070 (Hitachi High-Technologies Co. Tokyo, Japan). Agents used in the assays were Obtained from Merck & Co. (Kenilworth, N.J., U.S.A.). Triglyceride (TG), total cholesterol, HDL cholesterol and LDL cholesterol in mouse serum were measured by methods used in the clinic. To measure the hepatic TG, isolated liver were cut into small chips.

These results are taken from patent publication US20150359798A1, “PIPERAZINYL DERIVATIVE REDUCES HIGH-FAT DIET-INDUCED ACCUMULATION OF FAT IN THE LIVERS, […]” (priority 2011, published 2015).

For `Cl.Cn1c(=O)c2c(ncn2CCN2CCN(c3ccccc3Cl)CC2)n(C)c1=O` [KMUP-1 HCl, 7-[2-[4-(2-chlorophenyl)piperazinyl]ethyl]-1,3-dimethylxanthine HCl complex], in the assay with HMG CoA reductase, the “HFD-induced downregulation of HMG-CoA reductase expression in liver” value was “significantly reversed”. The PDE-5A with PDE-5A amounted to 64.5 ± 4.5%. The eNOS in the assay with eNOS stood at 155.16 ± 14.8%. Further, the body weight entry with mice fed a HFD (drinking 2.5 mg/200 ml water, protection and treatment groups) is listed as “decreased”. The “fatty liver (gross morphology)” value in the assay with mice fed a HFD (protective group, more prominent than in the treatment group) is on record as “markedly decreased”. Also, the ROCKII in the assay with ROCKII stood at 42.5 ± 6.3%. Besides, the “hepatic LDLRs (IHC)” value with LDLRs is on record as “increased”. For the same molecule, the body-weight gain entry with mice fed with HFD (KMUP-1 HCl 2.5, 5 mg/kg p.o., simvastatin 5 mg/kg p.o., compared to control HFD group, p<0.05) is listed as “reduced”. In the assay with mice fed with HFD (dose 2.5 mg/kg), this molecule came in with an HDL chol. of 103.6 ± 4.2 mg/dL, an LDL chol. of 14.2 ± 1.4 mg/dL, a TG of 74.5 ± 5.1 mg/dL and a Tot. chol. of 133 ± 5.1 mg/dL. In the assay on mice fed with HFD (dose 5 mg/kg), the HDL chol. turned out to be 118.3 ± 5.7 mg/dL, the LDL chol. amounted to 14.2 ± 2.2 mg/dL, the TG was 72.67 ± 4.7 mg/dL and the Tot. chol. came to 125.5 ± 9.8 mg/dL.
